Measured values taken from publication PMC8904451, “Novel chalcone-derived pyrazoles as potential therapeutic agents for the treatment of non-small cell lung cancer” (Scientific Reports, 2022).
Like-named read-outs stand apart in the source and are kept apart here.

Key:
Format in all cases: cell-based, human
[1] = system: A-549, H226, and H460 cells; experiment: Cell cycle distribution by flow cytometry, unsynchronized cells; conditions: IC90, 24 h, vs control
Experimental: Promising antiproliferative properties of PCH-1 led us to further investigate the effect of this compound on cell cycle distribution. Therefore, cell cycle progression was analyzed by quantifying DNA content using flow cytometry. […] To thoroughly analyze the course of the cycle, A-549 cells were synchronized with a double-thymidine block in the G1 phase and treated with IC90 concentration of PCH-1 for the indicated time. Slight alterations of the division cycle were visible after 2 h of incubation with the compound.
Cells were seeded onto tissue culture plates and allowed to attach for 24 h. Unsynchronized cells were treated with PCH-1 or Etoposide at IC90 concentration for 24 and 48 h, while synchronized cells were treated with PCH-1 or Etoposide at IC90 concentration for 2, 4, 6, 8, and 10 h. Synchronization of the cells was performed as described previously by Chen et al.[77]. Next, the cells were trypsinized, fixed in ice-cold 75% ethanol, and stored overnight at − 20 °C. After centrifugation, the cells were rinsed with PBS and stained with […] PI (Sigma-Aldrich) and […] RNaseA (Thermo Fisher) in PBS for 30 min at RT. The distribution of the cells in different phases of the cell cycle was determined by flow cytometry (Guava EasyCyte 8 cell sorter, Merck Millipore) and FlowJo software v10. Each experiment was repeated independently three times.

[2] = system: A-549, H226, and H460 cells; experiment: Annexin V/PI apoptosis assay by flow cytometry; conditions: 48 h, IC90, depending on the cell line; vehicle approximately 5%
Experimental: To examine whether the effect of PCH-1 on reducing the viability of lung cancer cells was the result of inducing apoptotic cell death, A-549, H226, and H460 cells were treated with the compound for 6, 24, and 48 h, and analyzed by Annexin V/propidium iodide (PI) double staining using flow cytometry (Fig. S1 in supplementary information). […] At 24 h of treatment with the compound, a slight increase in both early (Annexin V(+)/PI(−)) and late (Annexin V(+)/PI(+)) apoptotic fractions was observed. […] PI can enter only those cells with damaged plasma membrane, which enables to differentiate early apoptotic cells from late apoptotic and necrotic cells. Overall, biochemical changes involved in apoptotic cell death were prevailing, whereas necrotic changes were not observed. Furthermore, typical phenotypic features of cells undergoing apoptosis were visualized by fluorescent microscopy in Supplementary Fig. S2 and described in Supplementary Information.
Cells were seeded onto tissue culture plates and allowed to attach for 24 h. Next, the cells were treated with PCH-1 or Etoposide at IC90 concentration for 6, 24, and 48 h. […]

A-549 cells = experiment: MTT cell viability assay, A-549; conditions: for IC50: Homo sapiens, A549
Experimental: All the synthesized chalcone-derived pyrazoles were evaluated for their antiproliferative activity against three human non-small cell lung cancer cell lines: A-549, H226, and H460, and a nonmalignant human embryonic kidney cell line HEK293. Cisplatin and 5-fluorouracil (5-FU) were used as a reference. […] The results of the studies are expressed as the IC50 concentration that inhibits 50% growth of cells. […] Following treatment with PCH-1, the viability of all the tested cancer cell lines decreased in a concentration-dependent manner.
The cell viability assay was performed for A-549, H226, H460, and HEK293 cells after treatment with the test compounds by using the 3-(4,5-dimethylthiazol-2-yl)-2,5-diphenyltetrazolium bromide (MTT, Sigma-Aldrich) assay. Briefly, cells were seeded onto 96-well culture plates for attachment. After 24 h, triplicate wells were treated with DMSO (1%) and the agents. […] After 2–4 h of incubation, the medium was removed, and the formazan crystals were dissolved in 100 μl of DMSO. The absorption was measured at 450 nm with an ASYS UVM340 microplate reader (Biochrom Ltd.). The 50% inhibitory concentration (IC50) was defined as the concentration that reduced the absorbance of the DMSO-treated wells by 50% of the vehicle. The IC50 values were generated from GraphPad Prism 9 software by plotting the survival curve as a function of dose from 3 independent experiments.

What does the source list for `COc1ccc(C2CC(c3cc4c(cc3OC)OCO4)=NN2C(C)=O)cc1` (stereo not drawn) [PCH-1, 1-[3-(6-methoxy-2H-1,3-benzodioxol-5-yl)-5-(4-methoxyphenyl)-4,5-dihydro-1H-pyrazol-1-yl]ethan-1-one]?
cell cycle arrest [1]: induced cell cycle arrest in the G2/M phase; late apoptotic phase (Annexin V(+)/PI(+)) cells [2]: 30–60%; superior activity to the reference compound Cisplatin, A-549 (A-549 cells; 72 h IC50 ratio): approximately 6.7 fold; IC50 (A-549 cells; 72 h, MTT, read-out: IC50 ± SD, growth inhibition, A-549): 4.32 ± 0.28 µM; IC50 (A-549 cells; A-549, 24 h, read-out: IC50 after 24 h of treatment): 41.3 ± 0.75 µM; IC50 (A-549 cells; A-549, 48 h, read-out: IC50 after 48 h of treatment): 25.6 ± 0.97 µM
